pKd, pKi: −log10 of the molar value.
Assays:
[1] = molecular target: T1, Trifunctional purine biosynthetic protein adenosine-3 (Mus musculus, UniProt Q64737); test: Thermodynamic dissociation constant (KD) was measured upon binding to GAR TFase in mice
T1 sequence (Q64737 whole entry): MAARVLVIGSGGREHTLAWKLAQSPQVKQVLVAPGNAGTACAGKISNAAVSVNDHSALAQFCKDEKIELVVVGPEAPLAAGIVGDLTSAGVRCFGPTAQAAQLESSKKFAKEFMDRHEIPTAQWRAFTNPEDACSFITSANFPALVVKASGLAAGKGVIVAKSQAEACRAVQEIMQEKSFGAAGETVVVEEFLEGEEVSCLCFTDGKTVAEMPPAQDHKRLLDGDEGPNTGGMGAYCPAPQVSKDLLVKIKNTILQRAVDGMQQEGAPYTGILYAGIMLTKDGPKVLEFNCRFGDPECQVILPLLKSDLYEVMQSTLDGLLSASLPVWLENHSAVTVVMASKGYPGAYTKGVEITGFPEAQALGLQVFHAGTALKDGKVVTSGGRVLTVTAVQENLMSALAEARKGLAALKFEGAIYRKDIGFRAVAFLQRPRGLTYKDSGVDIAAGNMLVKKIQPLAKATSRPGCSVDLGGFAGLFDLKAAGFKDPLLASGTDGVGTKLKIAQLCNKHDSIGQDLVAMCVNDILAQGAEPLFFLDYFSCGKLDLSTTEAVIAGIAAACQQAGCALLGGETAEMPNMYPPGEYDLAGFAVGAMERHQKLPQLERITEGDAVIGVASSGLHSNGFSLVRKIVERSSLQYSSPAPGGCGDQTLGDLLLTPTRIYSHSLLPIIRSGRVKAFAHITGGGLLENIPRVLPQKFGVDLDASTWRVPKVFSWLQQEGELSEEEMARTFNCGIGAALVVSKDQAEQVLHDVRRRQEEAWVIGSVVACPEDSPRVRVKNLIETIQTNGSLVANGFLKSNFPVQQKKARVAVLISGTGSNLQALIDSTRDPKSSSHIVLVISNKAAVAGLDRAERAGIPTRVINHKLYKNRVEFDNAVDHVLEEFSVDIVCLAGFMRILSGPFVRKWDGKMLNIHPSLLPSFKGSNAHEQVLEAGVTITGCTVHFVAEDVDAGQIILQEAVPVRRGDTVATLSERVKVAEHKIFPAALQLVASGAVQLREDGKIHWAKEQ

[2] = molecular target: T1, Trifunctional purine biosynthetic protein adenosine-3; test: Compound was tested for inhibition constant against GAR TFase in mice

pKd [1]: 9.60 | pKi [2]: < 7.00
SMILES: Nc1nc2ccc(CN(C(=O)CSCC(=O)NC3O[C@H](COP(=O)(O)O)[C@@H](O)[C@H]3O)c3ccc(C(=O)N[C@H](CCC(=O)O)C(=O)O)cc3)cc2c(=O)[nH]1 (some centres not stated)
